Measurements as given in patent US11492385B2, “Long-acting co-agonists of the glucagon and GLP-1 receptors” (Merck Sharp & Dohme Corp., priority 2015, dated 2022).
Read-outs that look alike come from different tables or passages of the source. Starred links: 1 amine or outer side, 2 acyl side, 3 side chain; linkers in the order of their positions; H or OH if unused. Non-standard residues stand in square brackets, D forms with d. Residues, ends and D or L forms follow the SMILES beside them. Groups on a side chain read outwards from the residue. *: point of attachment. Phe(4-CH2NH2) = NCc1ccc(C[C@H](N)C(=O)O)cc1; C18 diacid = O=C(O)CCCCCCCCCCCCCCCCC(=O)*; C17 diacid = O=C(O)CCCCCCCCCCCCCCCC(=O)*; αMeW = C[C@](N)(Cc1c[nH]c2ccccc12)C(=O)O; C16 diacid = O=C(O)CCCCCCCCCCCCCCC(=O)*; γGlu = O=C(O)[C@H](CCC(=O)[*:2])N[*:1]; Met(O2) = CS(=O)(=O)CC[C@H](N)C(=O)O; Palmitoyl = CCCCCCCCCCCCCCCC(=O)*; AEEA = NCCOCCOCC(=O)O; Aib = CC(C)(N)C(=O)O

Legend:
[1] = biological target: T1, human GCGR (Homo sapiens, UniProt P47871); test: cAMP activity assay, cells expressing human GCGR; format: cell-based; details: for EC50: cAMP production, cells expressing human GCGR, assay buffer with or without 20% human serum (not stated which); for hGCGR/hGLP1R (hTone): ratio of human GCGR EC50 to human GLP1R EC50
T1 construct: expressed in transfected cells; kept under Blasticidin and Hygromycin selection
Method: (§1) Activity of the peptides at the Glucagon receptor (GCGR) and GLP-1 receptor (GLP1R) was measured in a cAMP activity assay. Peptides were dissolved in 100% DMSO and serially diluted to generate 10 point titrations. The peptide solutions were then transferred into 384-well assay plates (150 nL/well). […] Production of cAMP was determined using […] kits (DiscoverX) following manufacturer protocol. The plates were incubated for overnight at room temperature in the dark. Luminescence was measured using an EnVision Multilabel plate reader (Perkin Elmer). Native GLP-1 and Glucagon (Bachem) are used as control peptides. EC50 values were calculated using uses a 4 parameter logistic fit based on the Levenberg-Marquardt algorithm.

[2] = biological target: T2, human GLP1R (Homo sapiens, UniProt P43220); test: cAMP activity assay, cells expressing human GLP1R; format: cell-based; details: cAMP production, assay buffer with or without 20% human serum (not stated which)
T2 construct: expressed in transfected cells; kept under Blasticidin and Hygromycin selection
Method: as §1

T1 sequence (P47871 26-477): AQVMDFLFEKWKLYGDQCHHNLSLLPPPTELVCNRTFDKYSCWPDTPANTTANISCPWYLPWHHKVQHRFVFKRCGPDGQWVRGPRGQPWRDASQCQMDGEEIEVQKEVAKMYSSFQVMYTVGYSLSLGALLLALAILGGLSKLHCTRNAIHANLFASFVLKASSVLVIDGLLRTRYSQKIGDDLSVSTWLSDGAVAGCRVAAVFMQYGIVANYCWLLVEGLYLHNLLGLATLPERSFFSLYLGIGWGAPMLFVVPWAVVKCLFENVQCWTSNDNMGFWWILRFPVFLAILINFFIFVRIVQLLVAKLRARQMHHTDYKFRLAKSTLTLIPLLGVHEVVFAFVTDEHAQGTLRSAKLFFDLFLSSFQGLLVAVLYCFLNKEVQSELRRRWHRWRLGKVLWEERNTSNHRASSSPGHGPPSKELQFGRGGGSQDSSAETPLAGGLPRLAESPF
T2 sequence (P43220 24-463): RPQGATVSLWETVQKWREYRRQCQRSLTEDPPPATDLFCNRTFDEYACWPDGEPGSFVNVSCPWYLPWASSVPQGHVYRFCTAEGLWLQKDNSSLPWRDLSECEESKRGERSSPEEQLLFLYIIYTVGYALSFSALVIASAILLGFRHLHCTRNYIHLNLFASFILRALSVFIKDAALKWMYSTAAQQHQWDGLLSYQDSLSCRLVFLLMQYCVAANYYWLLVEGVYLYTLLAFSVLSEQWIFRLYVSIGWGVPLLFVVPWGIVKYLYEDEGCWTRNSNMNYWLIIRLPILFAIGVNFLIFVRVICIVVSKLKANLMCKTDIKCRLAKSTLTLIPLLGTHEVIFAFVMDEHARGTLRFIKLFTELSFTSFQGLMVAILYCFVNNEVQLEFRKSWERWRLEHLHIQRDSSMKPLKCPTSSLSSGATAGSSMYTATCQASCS

Row | EC50 ([1]; read-out: GCGR EC50 human) | hGCGR/hGLP1R (hTone) [1] | EC50 [2] | Structure (SMILES) | EC50 ([1]; GCGR EC50 human)
1 | 0.16 nM | 0.09 | 1.89 nM | CC(C)C[C@H](NC(=O)[C@H](CC(C)C)NC(=O)[C@H](Cc1c[nH]c2ccccc12)NC(=O)[C@H](CCC(N)=O)NC(=O)[C@@H](NC(=O)[C@H](Cc1ccccc1)NC(=O)[C@H](CCCCNC(=O)COCCOCCNC(=O)COCCOCCNC(=O)CC[C@H](NC(=O)CCCCCCCCCCCCCCC(=O)O)C(=O)O)NC(=O)[C@H](CCC(N)=O)NC(=O)[C@H](C)NC(=O)[C@H](C)NC(=O)[C@H](CCCNC(=N)N)NC(=O)C(C)(C)NC(=O)[C@H](CC(=O)O)NC(=O)[C@H](CC(C)C)NC(=O)[C@H](Cc1ccc(O)cc1)NC(=O)[C@H](CCCCN)NC(=O)[C@H](CO)NC(=O)[C@H](Cc1ccc(O)cc1)NC(=O)[C@H](CC(=O)O)NC(=O)[C@H](CO)NC(=O)[C@@H](NC(=O)[C@H](Cc1ccccc1)NC(=O)[C@@H](NC(=O)CNC(=O)[C@H](CCC(N)=O)NC(=O)[C@@H](CO)NC(=O)[C@@H](N)Cc1c[nH]cn1)[C@@H](C)O)[C@@H](C)O)C(C)C)C(=O)N[C@@H](C)C(=O)N[C@H](C(=O)N[C@@H](CCCCNC(=O)CC[C@H](N)C(=O)O)C(N)=O)[C@@H](C)O [compound 1] (H-H[dS]QGTFTSDYSKYLD[Aib]RAAQK([AEEA-AEEA-γGlu-C16 diacid])FVQWLLATK(γGlu)-NH2) | –
2 | – | 2.19 | – | CCCCCCCCCCCCCCCC(=O)N[C@@H](CCC(=O)NCCOCCOCC(=O)NCCOCCOCC(=O)NCc1ccc(C[C@H](NC(=O)[C@H](CC(=O)O)NC(=O)[C@H](CO)NC(=O)[C@@H](NC(=O)[C@H](Cc2ccccc2)NC(=O)[C@@H](NC(=O)CNC(=O)[C@H](CCC(N)=O)NC(=O)C(C)(C)NC(=O)[C@@H](N)Cc2c[nH]cn2)[C@@H](C)O)[C@@H](C)O)C(=O)N[C@@H](CO)C(=O)N[C@@H](CCCCN)C(=O)N[C@@H](Cc2ccc(O)cc2)C(=O)N[C@@H](CC(C)C)C(=O)N[C@@H](CC(=O)O)C(=O)N[C@@H](C)C(=O)N[C@@H](CCCNC(=N)N)C(=O)N[C@@H](C)C(=O)N[C@@H](C)C(=O)N[C@@H](CCC(N)=O)C(=O)N[C@@H](CC(=O)O)C(=O)N[C@@H](Cc2ccccc2)C(=O)N[C@H](C(=O)N[C@@H](CCC(N)=O)C(=O)N[C@@H](Cc2c[nH]c3ccccc23)C(=O)N[C@@H](CC(C)C)C(=O)N[C@@H](CCS(C)(=O)=O)C(=O)N[C@@H](CC(=O)O)C(=O)N[C@H](C(N)=O)[C@@H](C)O)C(C)C)cc1)C(=O)O [compound 13] (H-H[Aib]QGTFTSD[Phe(4-CH2NH2)]([AEEA-AEEA-γGlu-Palmitoyl])SKYLDARAAQDFVQWL[Met(O2)]DT-NH2) | –
3 | – | 0.17 | – | CC(C)C[C@H](NC(=O)[C@H](Cc1ccc(O)cc1)NC(=O)[C@H](CCCCN)NC(=O)[C@H](CO)NC(=O)[C@H](Cc1ccc(O)cc1)NC(=O)[C@H](CC(=O)O)NC(=O)[C@H](CO)NC(=O)[C@@H](NC(=O)[C@H](Cc1ccccc1)NC(=O)[C@@H](NC(=O)CNC(=O)[C@H](CCC(N)=O)NC(=O)[C@@H](CO)NC(=O)[C@@H](N)Cc1c[nH]cn1)[C@@H](C)O)[C@@H](C)O)C(=O)N[C@@H](CC(=O)O)C(=O)N[C@@H](C)C(=O)N[C@@H](CCCNC(=N)N)C(=O)N[C@@H](C)C(=O)N[C@@H](C)C(=O)N[C@@H](CCC(N)=O)C(=O)N[C@@H](CCCCNC(=O)COCCOCCNC(=O)COCCOCCNC(=O)CC[C@H](NC(=O)CCCCCCCCCCCCCCCCC(=O)O)C(=O)O)C(=O)N[C@@H](Cc1ccccc1)C(=O)N[C@H](C(=O)N[C@@H](CCC(N)=O)C(=O)N[C@@H](Cc1c[nH]c2ccccc12)C(=O)N[C@@H](CC(C)C)C(=O)N[C@@H](CC(C)C)C(=O)N[C@@H](CC(=O)O)C(=O)N[C@H](C(N)=O)[C@@H](C)O)C(C)C [compound 21] (H-H[dS]QGTFTSDYSKYLDARAAQK([AEEA-AEEA-γGlu-C18 diacid])FVQWLLDT-NH2) | –
4 | – | 1.30 | – | CC(C)C[C@H](NC(=O)[C@H](Cc1ccc(O)cc1)NC(=O)[C@H](CCCCN)NC(=O)[C@H](CO)NC(=O)[C@H](Cc1ccc(O)cc1)NC(=O)[C@H](CC(=O)O)NC(=O)[C@H](CO)NC(=O)[C@@H](NC(=O)[C@H](Cc1ccccc1)NC(=O)[C@@H](NC(=O)CNC(=O)[C@H](CCC(N)=O)NC(=O)C(C)(C)NC(=O)[C@@H](N)Cc1c[nH]cn1)[C@@H](C)O)[C@@H](C)O)C(=O)N[C@@H](CC(=O)O)C(=O)N[C@@H](C)C(=O)N[C@@H](CCCNC(=N)N)C(=O)N[C@@H](C)C(=O)N[C@@H](C)C(=O)N[C@@H](CCCCNC(=O)COCCOCCNC(=O)COCCOCCNC(=O)CC[C@H](NC(=O)CCCCCCCCCCCCCCCC(=O)O)C(=O)O)C(=O)N[C@@H](CC(=O)O)C(=O)N[C@@H](Cc1ccccc1)C(=O)N[C@H](C(=O)N[C@@H](CCC(N)=O)C(=O)N[C@@H](Cc1c[nH]c2ccccc12)C(=O)N[C@@H](CC(C)C)C(=O)N[C@@H](CCS(C)(=O)=O)C(=O)N[C@@H](CC(=O)O)C(=O)N[C@H](C(N)=O)[C@@H](C)O)C(C)C [compound 47] (H-H[Aib]QGTFTSDYSKYLDARAAK([AEEA-AEEA-γGlu-C17 diacid])DFVQWL[Met(O2)]DT-NH2) | –
5 | – | 3 | – | CC(C)C[C@H](NC(=O)[C@H](Cc1ccc(O)cc1)NC(=O)[C@H](CCCCN)NC(=O)[C@H](CO)NC(=O)[C@H](Cc1ccc(O)cc1)NC(=O)[C@H](CC(=O)O)NC(=O)[C@H](CO)NC(=O)[C@@H](NC(=O)[C@H](Cc1ccccc1)NC(=O)[C@@H](NC(=O)CNC(=O)[C@H](CCC(N)=O)NC(=O)C(C)(C)NC(=O)[C@@H](N)Cc1c[nH]cn1)[C@@H](C)O)[C@@H](C)O)C(=O)N[C@@H](CC(=O)O)C(=O)N[C@@H](C)C(=O)N[C@@H](CCCNC(=N)N)C(=O)N[C@@H](C)C(=O)N[C@@H](C)C(=O)N[C@@H](CCCCNC(=O)COCCOCCNC(=O)COCCOCCNC(=O)CC[C@H](NC(=O)CCCCCCCCCCCCCCC(=O)O)C(=O)O)C(=O)N[C@@H](CC(=O)O)C(=O)N[C@@H](Cc1ccccc1)C(=O)N[C@H](C(=O)N[C@@H](CCC(N)=O)C(=O)N[C@@](C)(Cc1c[nH]c2ccccc12)C(=O)N[C@@H](CC(C)C)C(=O)N[C@@H](CCS(C)(=O)=O)C(=O)N[C@@H](CC(=O)O)C(=O)N[C@H](C(N)=O)[C@@H](C)O)C(C)C [compound 78] (H-H[Aib]QGTFTSDYSKYLDARAAK([AEEA-AEEA-γGlu-C16 diacid])DFVQ[αMeW]L[Met(O2)]DT-NH2) | –

Row | Structure (SMILES) | EC50 ([1]; read-out: GCGR EC50 human) | hGCGR/hGLP1R (hTone) [1] | EC50 [2] | EC50 ([1]; GCGR EC50 human)
6 | CC(C)C[C@H](NC(=O)[C@H](CC(C)C)NC(=O)[C@H](Cc1c[nH]c2ccccc12)NC(=O)[C@H](CCC(N)=O)NC(=O)[C@@H](NC(=O)[C@H](Cc1ccccc1)NC(=O)[C@H](CC(=O)O)NC(=O)[C@H](CCC(N)=O)NC(=O)[C@H](C)NC(=O)[C@H](C)NC(=O)[C@H](CCCNC(=N)N)NC(=O)C(C)(C)NC(=O)[C@H](CC(=O)O)NC(=O)[C@H](CC(C)C)NC(=O)[C@H](Cc1ccc(O)cc1)NC(=O)[C@H](CCCCN)NC(=O)[C@H](CO)NC(=O)[C@H](Cc1ccc(CNC(=O)COCCOCCNC(=O)COCCOCCNC(=O)CC[C@H](NC(=O)CCCCCCCCCCCCCCC(=O)O)C(=O)O)cc1)NC(=O)[C@H](CC(=O)O)NC(=O)[C@H](CO)NC(=O)[C@@H](NC(=O)[C@H](Cc1ccccc1)NC(=O)[C@@H](NC(=O)CNC(=O)[C@H](CCC(N)=O)NC(=O)C(C)(C)NC(=O)[C@@H](N)Cc1c[nH]cn1)[C@@H](C)O)[C@@H](C)O)C(C)C)C(=O)N[C@@H](C)C(=O)N[C@H](C(=O)N[C@@H](CCCCNC(=O)CC[C@H](N)C(=O)O)C(N)=O)[C@@H](C)O [compound 11] (H-H[Aib]QGTFTSD[Phe(4-CH2NH2)]([AEEA-AEEA-γGlu-C16 diacid])SKYLD[Aib]RAAQDFVQWLLATK(γGlu)-NH2) | – | 4.15 | – | 1.03 nM
